Experimental data taken from patent publication US7652015B2, “Kinase inhibitors” (Eli Lilly and Company, priority 2006, dated 2010).
Counter-ions that a name gives are not always drawn. Like-named read-outs stand apart in the source and are kept apart here.

What was measured:
[1] = tested on: p-MAPKAPK2; assay: Inhibition of p-MAPKAPK2 in vitro, anisomycin-stimulated RAW 264.7 cells, ELISA; format: cell-based, murine; settings: Mus musculus, RAW264.7, in the presence of 100% serum
[2] = tested on: p-MAPKAPK2; assay: as above; format: cell-based, murine; settings: Mus musculus, RAW264.7; RAW 264.7 cells, 2 hours compound, anisomicin 100 ug/ml 30 minutes; read-out: IC50, inhibition of p-MAPKAPK2 in vitro
Method: RAW 264.7 cells (a murine monocytic/macrophage line ATCC) are seeded at a density of 50,000 cells/well in 96-well plates with RPMI-1640 medium plus 10% fetal bovine serum (FBS) and allowed to settle and adhere to the bottom of the well for 48 hours. After reaching confluence, cells are treated for 2 hours with 10 serial dilutions of different compounds. A control compound is always included. After 2 hours, anisomicin (100 ug/ml) is added and cells are incubated for 30 minutes at 37° C. under a 5% CO2 atmosphere. Then, cells are fixed and treated with hydrogen peroxide in order to remove endogenous peroxidase. Finally, plates are blocked with FBS, washed, and an ELISA assay is carried out by using an antiphospho-MAPKAPK (Thr 334, Cell Signalling, Cat # 3041) antibody and ahP-Conjugated Secondary Antibody. This reaction is detected by using FEMTO (Pierce) which is an enhanced chemiluminiscent substrate ahP that results in rapid kinetic light output and high signal intensity.

Row | IC50 [1] | IC50 [2] | SMILES
1 | ≤ 500 nM | – | Cc1ccc(-n2nc(C3(C(F)(F)F)CC3)cc2NC(=O)Nc2ccc(N3CCN(C(=O)c4sccc4C)CC3)nc2C)cn1 [Example 113, 1-{2-Methyl-6-[4-(3-methyl-thiophene-2-carbonyl)-piperazin-1-yl]-pyridin-3-yl}-3-[2-(6-methyl-pyridin-3-yl)-5-(1-trifluoromethyl-cyclopropyl)-2H-pyrazol-3-yl]-urea mesylate]
2 | ≤ 500 nM | – | Cc1ccc(-n2nc(C3(C(F)(F)F)CC3)cc2NC(=O)Nc2ccc(N3CCN(C(=O)c4ccccc4Cl)CC3)nc2C)cn1 [Example 114, 1-{6-[4-(2-Chloro-benzoyl)-piperazin-1-yl]-2-methyl-pyridin-3-yl}-3-[2-(6-methyl-pyridin-3-yl)-5-(1-trifluoromethyl-cyclopropyl)-2H-pyrazol-3-yl]-urea mesylate]
3 | ≤ 500 nM | – | Cc1ccc(-n2nc(C(C)(C)C)cc2NC(=O)Nc2ccc(N3CCN(C(=O)c4ccccc4Cl)CC3)nc2C)cn1 [Example 111, 1-[5-tert-Butyl-2-(6-methyl-pyridin-3-yl)-2H-pyrazol-3-yl]-3-{6-[4-(2-chloro-benzoyl)-piperazin-1-yl]-2-methyl-pyridin-3-yl}-urea mesylate]
4 | ≤ 500 nM | – | Cc1ccc(-n2nc(C3(C(F)(F)F)CC3)cc2NC(=O)Nc2ccc(N3CCN(C(=O)c4ccccc4F)CC3)nc2C)cn1 [Example 115, 1-{6-[4-(2-Fluoro-benzoyl)-piperazin-1-yl]-2-methyl-pyridin-3-yl}-3-[2-(6-methyl-pyridin-3-yl)-5-(1-trifluoromethyl-cyclopropyl)-2H-pyrazol-3-yl]-urea mesylate]
5 | ≤ 500 nM | – | Cc1ccc(-n2nc(C(C)(CF)CF)cc2NC(=O)Nc2ccc(N3CCN(C(=O)c4ccccc4C)CC3)nc2C)cc1 [Example 119, 1-[5-(2-Fluoro-1-fluoromethyl-1-methyl-ethyl)-2-p-tolyl-2H-pyrazol-3-yl]-3-{2-methyl-6-[4-(2-methyl-benzoyl)-piperazin-1-yl]-pyridin-3-yl}-urea]

Second part, the molecule before the results:

Row | SMILES | IC50 [1] | IC50 [2]
6 | Cc1ccc(-n2nc(C(C)(C)C)cc2NC(=O)Nc2ccc(N3CCN(C(=O)c4c(Cl)cccc4Cl)CC3)nc2C)cc1 [Example 45, 1-(5-tert-Butyl-2-p-tolyl-2H-pyrazol-3-yl)-3-{6-[4-(2,6-dichloro-benzoyl)-piperazin-1-yl]-2-methyl-pyridin-3-yl}-urea methanesulfonate] | – | 6.7 nM
7 | Cc1ccc(-n2nc(C(C)(C)C)cc2NC(=O)Nc2cnc(N3CCN(C(=O)C4(C)CC4)CC3)cc2C)cc1 [Example 128, 1-(5-tert-Butyl-2-p-tolyl-2H-pyrazol-3-yl)-3-{4-methyl-6-[4-(1-methyl-cyclopropanecarbonyl)-piperazin-1-yl]-pyridin-3-yl}-urea mesylate] | – | 286 nM
8 | Cc1ccc(-n2nc(C(C)(C)C)cc2NC(=O)Nc2ccc(OC3CCN(C(=O)c4ccc(Cl)s4)CC3)nc2)cc1 [Example 92, 1-(5-tert-Butyl-2-p-tolyl-2H-pyrazol-3-yl)-3-{6-[1-(5-chloro-thiophene-2-carbonyl)-piperidin-4-yloxy]-pyridin-3-yl}-urea] | – | 16 nM
9 | Cc1ccc(-n2nc(C(C)(C)C)cc2NC(=O)Nc2ccc(OC3CCN(C(=O)C4(C)CC4)CC3)nc2C)cc1 [Example 77, 1-(5-tert-Butyl-2-p-tolyl-2H-pyrazol-3-yl)-3-{2-methyl-6-[1-(1-methyl-cyclopropanecarbonyl)-piperidin-4-yloxy]-pyridin-3-yl}-urea] | – | 176 nM
